Reference: patent US9427415B2, “Methods and compositions for modifying sensorial perception” (The Procter & Gamble Company, priority 2014, dated 2016)
Like-named read-outs stand apart in the source and are kept apart here.

Columns and labels:
human TRPA1 = biological target: T1, human TRPA1 (Homo sapiens, UniProt O75762, K186N/R3C/R58T); experiment: Intracellular calcium (Fluo-4, FLIPR) activation of TRPA1 cells by GRAS compounds; format: cell-based; conditions: relative to AITC 30 μM; for activation at 1000 µM / activation at 100 µM: read-out: A1 activation, % of agonist value;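 on all read-outs here: TRPA1-expressing cells, fluorescence read on a FLIPR Tetra (ex 488 nm, em 514 nm) every 2 s for 10 min after compound addition, baseline subtracted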
T1 construct: expressed in transfected cells; pcDNA3 control cells

TRPA1V1 = experiment: Intracellular calcium (Fluo-4, FLIPR) activation of TRPA1V1 cells (co-expressing TRPA1 and TRPV1) by GRAS compounds; format: cell-based, human;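 further: HEK293 cells co-expressing TRPA1 and TRPV1, fluorescence read at 488/514 nm after baseline subtraction, recorded every 2 s over 10 min, ionomycin 10 µM and buffer as controls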
Protocol: TRPV1, TRPA1, TRPA1V1 and pcDNA3 cells were grown in 15 mL growth medium [high glucose DMEM (Dulbecco's modification of Eagle's medium) supplemented with 10% FBS (fetal bovine serum), 100 μg/mL penicillin/streptomycin, 100 μg/mL G418] in a 75 cm^2 flask for 3 days in a mammalian cell culture incubator at 33° C. and 5% CO2. TRP Cells were detached with 8 mL of PBS (without calcium or magnesium); for pcDNA3 cells, trypsin was used for releasing the cells. The detached cells were spun at low speed (800-900 rpm for 3 min) to pellet the cells. […] The cells were washed once with 45 mL assay buffer (1×HBSS, 20 mM HEPES) by low speed centrifugation (800-900 rpm for 3 min) and resuspended in 11 mL of the assay buffer in a reagent reservoir. […] The plates were set at room temperature for 30 min. The plates were read in a FLIPR^TETRA instrument (Molecular Devices, Sunnyvale, Calif.) at λex 488 nm and λem 514 nm to record baseline fluorescence following which 20 μL of test material at 1 mM or 100 μM final concentration for pure compounds in a GRAS library or 0.004% for extracts. For agonists, capsaicin 350 nM and AITC at 30 μM; and for controls, ionomycin 10 μM and buffer alone) was added to each well using the dispenser provided in the FLIPR. The data point was recorded every 2 seconds for a total of 10 min.
Average value for activation from three independent assay plates are presented as % of agonist value (AITC, 30 μM for TRPA1 and capsaicin, 350 nM for TRPV1. For TRPA1V1, we used AITC, 30 μM or capsaicin, 350 nM depending on if the compound is an A1 agonist or a V1 agonist. For compounds that activated both A1 and V1, we used AITC for normalization). Variation among triplicates was within 10% of each other. Assayed at 1 mM for pure compounds and 0.004% for extracts.

human TRPV1 = biological target: T2, human TRPV1 (Homo sapiens, UniProt Q8NER1, M315I/T336M); experiment: Intracellular calcium (Fluo-4, FLIPR) activation of TRPV1 cells by GRAS compounds; format: cell-based;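 further: TRPV1-expressing cells, FLIPR fluorescence at 488/514 nm with baseline subtracted, sampled every 2 s for 10 min after adding compound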
T2 construct: expressed in transfected cells; pcDNA3 control cells

[1] = Table 1(b), 1 mM, relative to AITC 30 μM
[2] = Table 1(b), 1 mM, relative to capsaicin 350 nM, read-out: V1 activation, % of agonist value
[3] = Table 1(a), 1 mM, average of three plates
[4] = Table 1(a), 1 mM, relative to AITC 30 μM, average of three plates
[5] = Table 1(a), 1 mM, relative to capsaicin 350 nM, average of three plates, read-out: V1 activation, % of agonist value
[6] = Table 1(d), 100 μM (*), relative to AITC 30 μM
[7] = Table 1(a), 1 mM, relative to capsaicin 350 nM, average of three plates

T1 sequence (O75762 whole entry R3C/R58T/K186N): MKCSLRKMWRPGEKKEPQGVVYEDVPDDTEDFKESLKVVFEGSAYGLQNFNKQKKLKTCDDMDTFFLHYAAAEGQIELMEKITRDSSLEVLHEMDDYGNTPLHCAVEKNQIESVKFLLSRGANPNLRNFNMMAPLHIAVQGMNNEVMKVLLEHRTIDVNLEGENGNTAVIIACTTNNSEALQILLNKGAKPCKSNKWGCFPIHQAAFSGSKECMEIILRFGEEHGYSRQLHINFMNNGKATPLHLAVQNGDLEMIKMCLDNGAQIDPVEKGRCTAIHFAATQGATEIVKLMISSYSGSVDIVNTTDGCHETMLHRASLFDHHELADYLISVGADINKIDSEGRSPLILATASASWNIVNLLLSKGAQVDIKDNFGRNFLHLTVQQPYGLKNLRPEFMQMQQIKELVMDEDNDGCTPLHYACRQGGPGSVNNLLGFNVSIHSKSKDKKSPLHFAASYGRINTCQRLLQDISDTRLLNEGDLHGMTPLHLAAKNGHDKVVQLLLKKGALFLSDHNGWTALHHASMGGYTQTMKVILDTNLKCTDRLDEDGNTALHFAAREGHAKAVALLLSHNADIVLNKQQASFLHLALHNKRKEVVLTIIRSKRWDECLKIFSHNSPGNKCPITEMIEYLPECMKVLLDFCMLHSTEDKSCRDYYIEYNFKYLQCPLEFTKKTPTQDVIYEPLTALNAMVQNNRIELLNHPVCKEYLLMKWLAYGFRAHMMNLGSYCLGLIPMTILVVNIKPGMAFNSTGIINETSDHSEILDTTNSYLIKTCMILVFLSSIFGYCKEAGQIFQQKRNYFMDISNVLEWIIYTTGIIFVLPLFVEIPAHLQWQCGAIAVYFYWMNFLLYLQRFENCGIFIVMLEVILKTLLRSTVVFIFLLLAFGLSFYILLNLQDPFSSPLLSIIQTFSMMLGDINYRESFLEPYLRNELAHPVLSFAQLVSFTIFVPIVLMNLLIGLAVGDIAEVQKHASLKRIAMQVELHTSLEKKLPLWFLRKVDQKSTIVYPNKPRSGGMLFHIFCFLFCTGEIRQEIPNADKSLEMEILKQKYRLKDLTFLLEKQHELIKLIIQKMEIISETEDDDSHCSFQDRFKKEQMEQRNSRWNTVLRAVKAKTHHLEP
T2 sequence (Q8NER1 whole entry M315I/T336M): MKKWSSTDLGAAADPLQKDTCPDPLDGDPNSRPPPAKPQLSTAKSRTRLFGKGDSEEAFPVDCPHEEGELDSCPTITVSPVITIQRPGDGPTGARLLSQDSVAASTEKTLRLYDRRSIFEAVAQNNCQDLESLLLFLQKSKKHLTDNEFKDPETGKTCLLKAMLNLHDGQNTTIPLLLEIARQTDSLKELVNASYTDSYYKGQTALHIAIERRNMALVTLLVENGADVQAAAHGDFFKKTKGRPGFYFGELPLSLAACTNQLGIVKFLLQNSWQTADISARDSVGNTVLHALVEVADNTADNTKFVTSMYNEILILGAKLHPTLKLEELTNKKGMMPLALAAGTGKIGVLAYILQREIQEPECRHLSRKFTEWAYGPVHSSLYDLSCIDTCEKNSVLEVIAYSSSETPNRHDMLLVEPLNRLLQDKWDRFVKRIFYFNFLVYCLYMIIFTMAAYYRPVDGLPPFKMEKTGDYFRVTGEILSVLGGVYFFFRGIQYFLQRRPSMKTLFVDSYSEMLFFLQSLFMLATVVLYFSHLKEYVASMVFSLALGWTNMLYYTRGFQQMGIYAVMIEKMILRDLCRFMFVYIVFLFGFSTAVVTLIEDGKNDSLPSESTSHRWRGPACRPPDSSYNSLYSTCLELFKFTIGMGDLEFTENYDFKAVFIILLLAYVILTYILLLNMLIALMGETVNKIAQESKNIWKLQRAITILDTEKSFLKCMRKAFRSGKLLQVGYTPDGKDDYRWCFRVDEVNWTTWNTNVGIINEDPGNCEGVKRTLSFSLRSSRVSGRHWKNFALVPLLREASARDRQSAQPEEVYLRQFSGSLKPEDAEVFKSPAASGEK

Row | Compound | activation at 1000 µM (human TRPA1; Table 1(b), 1 mM) | A1V1 activation, % of agonist value (TRPA1V1; [1]) | activation at 1000 µM (human TRPV1; [2]) | activation at 1000 µM (human TRPA1; [3]) | A1V1 activation, % of agonist value (TRPA1V1; [4]) | activation at 1000 µM (human TRPV1; [5]) | other results
1 | OCCCc1ccccc1 [3-Phenylpropanol] | 51.4% | 64.94% | 32% | – | – | – | –
2 | CCOCc1ccc(O)c(OC)c1 [Vanillyl ethyl ether] | – | – | – | 38% | 59.64% | 67.6% | –
3 | C=C(C)[C@@H]1CC=C(CO)CC1 [Perillyl alcohol] | – | – | – | 82% | 73.28% | 20.4% | –
4 | CC(=O)C(C)S (stereo not shown) [3-Mercaptobutanone, 3-Mercapto-2-butanone] | 50.4% | 80.9% | 63.8% | – | – | – | activation at 100 µM (human TRPA1; Table 1(d), 100 μM (*)): 68.9%; A1V1 activation, % of agonist value (TRPA1V1; [6]): 53.3%
5 | O=C1CCCC1C1CCCC1 (stereo not shown) [2-Cyclopentylcyclopentanone] | 25% | 90.8% | 24% | – | – | – | –
6 | CC(=O)C(=O)c1ccccc1 [1-Phenyl-1,2-propanedione] | – | – | – | 98.6% | 105.5% | 66.6% | activation at 100 µM (human TRPA1; Table 1(d), 100 μM (*)): 100%; A1V1 activation, % of agonist value (TRPA1V1; [6]): 71.4%
7 | O=C(CCc1ccc(O)cc1)c1c(O)cc(O)cc1O [Phloretin] | – | – | – | – | – | – | activation at 100 µM (human TRPA1; Table 1(a), 100 μM (*)): 160%; A1V1 activation, % of agonist value (TRPA1V1; Table 1(a), 100 μM (*), relative to AITC 30 μM): 174.3%; activation at 100 µM (human TRPV1; Table 1(a), 100 μM (*), relative to capsaicin 350 nM, read-out: V1 activation, % of agonist value): 122%
8 | Cc1ccc(C(C)C)c(O)c1 [Thymol] | 159% | 105.7% | 106% | – | – | – | –
9 | CCCCCC(O)CC(=O)OCC (stereo not shown) [Ethyl 3-hydroxyoctanoate] | 97.3% | 76.90% | 28.1% | – | – | – | –
10 | CC1=C(CC=O)C(C)(C)CCC1 [Beta-Cyclohomocitral] | – | – | – | – | 66.79% | – | A1 activation, % of agonist value (human TRPA1; [3]): 81.44%; V1 activation, % of agonist value (human TRPV1; [7]): 61.74%
11 | CCCCCC1CCC(=O)O1 (stereo not shown) [Gamma-Nonalactone] | – | – | – | – | 69.15% | – | A1 activation, % of agonist value (human TRPA1; [3]): 33.32%; V1 activation, % of agonist value (human TRPV1; [7]): 66.34%
12 | CC1=CC(=O)C(C(C)C)CC1 (stereo not shown) [Piperitone] | 90.1% | 109.1% | 53.3% | – | – | – | –
13 | CC(CC=O)CC(C)(C)C (stereo not shown) [3,5,5-Trimethylhexanal] | 133% | 114.7% | 217% | – | – | – | –
14 | CC/C=C\CCOC(=O)C(C)=O [Pyruvic caid cis-3-hexen-1-yl ester] | – | – | – | – | 40% | – | A1 activation, % of agonist value (human TRPA1; [3]): 45%; V1 activation, % of agonist value (human TRPV1; [7]): 21%
15 | c1ccc(CCCc2ccccn2)cc1 [2-(3-Phenylpropyl)pyridine] | – | – | – | 76% | 74.53% | 21.5% | –
16 | O=C(O)CC1CCCCC1 [Cyclohexaneacetic acid] | – | – | – | 20.6% | 61.28% | 56.6% | –
17 | Desoxycholic acid | – | – | – | – | – | – | A1 activation, % of agonist value (human TRPA1; Table 1(i), 100 μM (*), […]): 3.2%; A1V1 activation, % of agonist value (TRPA1V1; Table 1(i), 100 μM (*), relative to AITC 30 μM or capsaicin 350 nM depending on compound, […]): 2.9%; V1 activation, % of agonist value (human TRPV1; Table 1(i), 100 μM (*), relative to capsaicin 350 nM, […]): 84.4%; TRPV1 activation selectivity, in words (human TRPV1; statement in description, see Table 1(i)): TRPV1 activators which do not modulate TRPA1 or TRPA1V1
18 | CCCCCC1C(=O)CCC1CC(=O)OC (stereo not shown) [Hedione, Methyl dihydrojasmonate] | 43.5% | 60.64% | 25.6% | – | – | – | activation at 1000 µM (human TRPA1; Table 1(c), 1 mM): 54.4%; A1V1 activation, % of agonist value (TRPA1V1; Table 1(c), 1 mM, relative to AITC 30 μM): 59.58%
19 | CCCC(=O)OC/C=C(\C)CCC=C(C)C [Geranyl butyrate] | – | – | – | 76.9% | 76.26% | 28.9% | –
20 | C=CCSSSCC=C [Allyl-trisulfide] | – | – | – | 83.5% | 89.08% | 32.9% | –
21 | Cc1ccc(C)c(O)c1C [2,3,6-Trimethylphenol] | – | – | – | 90% | 91.4% | 74.8% | –
22 | CC(O)CCc1ccccc1 (stereo not shown) [4-Phenyl-2-butanol] | 58.8% | 81.29% | 37.9% | – | – | – | –
